In PubChem BioAssay (NCI):
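Grown in 96-well plates, cells were treated for 48 hours with each compound at five concentrations. Insufficient inhibition: endpoint recorded as highest concentration tested. TGI: concentration producing complete growth inhibition.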

Experiments:
Assay in all cases: DTP human tumour cell line panel, 48 h
UO-31 renal = test system: UO-31 renal
K-562 leukemia = test system: K-562 leukemia
ACHN renal = test system: ACHN renal
M14 melanoma = test system: M14 melanoma
OVCAR-5 ovarian = test system: OVCAR-5 ovarian
MOLT-4 leukemia = test system: MOLT-4 leukemia
A549 NSCLC = test system: A549 NSCLC
HCT-116 colon = test system: HCT-116 colon
HT29 colon = test system: HT29 colon
SNB-78 CNS = test system: SNB-78 CNS
SK-MEL-2 melanoma = test system: SK-MEL-2 melanoma
HOP-62 NSCLC = test system: HOP-62 NSCLC
NCI-H23 lung = test system: NCI-H23 lung
OVCAR-3 ovarian = test system: OVCAR-3 ovarian
SNB-19 CNS = test system: SNB-19 CNS
HOP-18 NSCLC = test system: HOP-18 NSCLC
SK-MEL-5 melanoma = test system: SK-MEL-5 melanoma
IGROV1 ovarian = test system: IGROV1 ovarian
HCT-15 colon = test system: HCT-15 colon
SK-MEL-28 melanoma = test system: SK-MEL-28 melanoma
SN12C renal = test system: SN12C renal
DMS 273 small cell lung = test system: DMS 273 small cell lung
NCI-H460 lung = test system: NCI-H460 lung
OVCAR-4 ovarian = test system: OVCAR-4 ovarian
RPMI-8226 leukemia = test system: RPMI-8226 leukemia
UACC-62 melanoma = test system: UACC-62 melanoma
SK-OV-3 ovarian = test system: SK-OV-3 ovarian
SF-295 CNS = test system: SF-295 CNS
UACC-257 melanoma = test system: UACC-257 melanoma
786-0 renal = test system: 786-0 renal
U251 CNS = test system: U251 CNS
SNB-75 CNS = test system: SNB-75 CNS
OVCAR-8 ovarian = test system: OVCAR-8 ovarian
CCRF-CEM leukemia = test system: CCRF-CEM leukemia
RXF 393 renal = test system: RXF 393 renal
LOX IMVI melanoma = test system: LOX IMVI melanoma
CAKI-1 renal = test system: CAKI-1 renal
SF-268 CNS = test system: SF-268 CNS
SR leukemia = test system: SR leukemia
MALME-3M melanoma = test system: MALME-3M melanoma
TK-10 renal = test system: TK-10 renal
M19-MEL melanoma = test system: M19-MEL melanoma
LXFL 529 NSCLC = test system: LXFL 529 NSCLC
NCI-H522 lung = test system: NCI-H522 lung
DLD-1 colon = test system: DLD-1 colon
HL-60(TB) leukemia = test system: HL-60(TB) leukemia
DMS 114 small cell lung = test system: DMS 114 small cell lung
A498 renal = test system: A498 renal
EKVX NSCLC = test system: EKVX NSCLC
HOP-92 NSCLC = test system: HOP-92 NSCLC
SF-539 CNS = test system: SF-539 CNS
COLO 205 colon = test system: COLO 205 colon
HCC-2998 colon = test system: HCC-2998 colon
SW-620 colon = test system: SW-620 colon
KM20L2 colon = test system: KM20L2 colon
KM12 colon = test system: KM12 colon
NCI-H226 lung = test system: NCI-H226 lung

Measured: TGI

CC1CCC2(OC1)OC1CC3C4CCC5CC(O)CCC5(C)C4CC(=O)OC3(C)C1C2C (stereo unspecified)
not listed: NCI-H226 lung
> 100 µM: all other assays above

CCCCCC(/C=C/[C@@H]1[C@H]2CC(=O)O[C@H]2C[C@H]1N1CCOCC1)OC1CCCO1 (stereo partly specified)
not listed: SN12C renal | SR leukemia
> 100 µM: all other assays above
